Converted amounts (≈) assume the structure as drawn.
Key:
Anesthetized Dogs = experiment: Measurement of Arterial Blood Pressure in Anesthetized Dogs; format: in vivo, Mongrel dogs; conditions: for blood pressure / ratio of blood pressure change as compared to the normal blood pressure: anesthetized dogs
Description: [A] Measurement of Arterial Blood Pressure in Anesthetized Dogs
Mongrel dogs weighing 11.8 to 19.0 kg were used. The dogs were anesthetized by intraperitoneal injection of pentobarbital sodium (35 mg/kg). The blood pressure was measured with a pressure transducer in the left femoral artery. The values of blood pressure were recorded on a polygraph. The right femoral vein was cannulated and the cumulative dose (0.01, 0.032, 0.1, 0.32, 1, 3.2, 10, 32 and 100 μg/kg) of the solution of Test Compounds dissolved in a mixture of polyethylene glycol, ethanol and water was intravenously injected in a volume of 0.2 ml/kg.
The values of blood pressure were shown in the following table with an expression of mm/Hg.
note: The values of the parentheses mean the ratio of blood pressure
change (%) in each dose as compared to the normal blood pressure.

[1] = background statement; cited from earlier work
[2] = Solubility Test (in water at ambient temperature); format: physicochemical; conditions: for solubility: in water, ambient temperature
Description: [B] Solubility Test Test Method Solubility of Test Compound A and Nilvadipine in water was measured at ambient temperature.

[3] = orally administered; background statement; cited from earlier work
[4] = cumulative i.v. dose 0.32 μg/kg
[5] = as compared to its optically inactive racemate, Nilvadipine

Which results are given for `COC(=O)C1=C(C#N)NC(C)=C(C(=O)OC(C)C)C1c1cccc([N+](=O)[O-])c1` (racemic) [Nilvadipine, (±)-5-isopropyl 3-methyl 2-cyano-6-methyl-4-(3-nitrophenyl)-1,4-dihydropyridine-3,5-dicarboxylate]?
blood pressure (Anesthetized Dogs; [4]): 104 ± 6 mm/Hg; ratio of blood pressure change as compared to the normal blood pressure (Anesthetized Dogs; [4]): +6 ± 1%; blood pressure (Anesthetized Dogs; cumulative i.v. dose 1 μg/kg): 103 ± 5 mm/Hg; ratio of blood pressure change as compared to the normal blood pressure (Anesthetized Dogs; cumulative i.v. dose 1 μg/kg): +5 ± 1%; blood pressure (Anesthetized Dogs; cumulative i.v. dose 3.2 μg/kg): 100 ± 4 mm/Hg; ratio of blood pressure change as compared to the normal blood pressure (Anesthetized Dogs; cumulative i.v. dose 3.2 μg/kg): -3 ± 2%; blood pressure (Anesthetized Dogs; cumulative i.v. dose 10 μg/kg): 90 ± 3 mm/Hg; ratio of blood pressure change as compared to the normal blood pressure (Anesthetized Dogs; cumulative i.v. dose 10 μg/kg): -7 ± 5%; blood pressure (Anesthetized Dogs; cumulative i.v. dose 32 μg/kg): 83 ± 5 mm/Hg; ratio of blood pressure change as compared to the normal blood pressure (Anesthetized Dogs; cumulative i.v. dose 32 μg/kg): -15 ± 6%; blood pressure (Anesthetized Dogs; cumulative i.v. dose 100 μg/kg): 65 ± 6 mm/Hg; ratio of blood pressure change as compared to the normal blood pressure (Anesthetized Dogs; cumulative i.v. dose 100 μg/kg): -34 ± 6%; solubility in water (in words) [1]: only slightly soluble in water; solubility [2]: 0.6 µg/mL (≈ 1.56 µM); absorbability of said drug into a body (in words) [3]: not so good

What does the source list for `COC(=O)C1=C(C#N)NC(C)=C(C(=O)OC(C)C)C1c1cccc([N+](=O)[O-])c1` (single isomer, unassigned; (+)) [Test Compound A, (+)-5-isopropyl 3-methyl 2-cyano-6-methyl-4-(3-nitrophenyl)-1,4-dihydropyridine-3,5-dicarboxylate]?
blood pressure (Anesthetized Dogs; [4]): 117 ± 6 mm/Hg; ratio of blood pressure change as compared to the normal blood pressure (Anesthetized Dogs; [4]): -2 ± 1%; blood pressure (Anesthetized Dogs; cumulative i.v. dose 1 μg/kg): 114 ± 6 mm/Hg; ratio of blood pressure change as compared to the normal blood pressure (Anesthetized Dogs; cumulative i.v. dose 1 μg/kg): -5 ± 1%; blood pressure (Anesthetized Dogs; cumulative i.v. dose 3.2 μg/kg): 101 ± 7 mm/Hg; ratio of blood pressure change as compared to the normal blood pressure (Anesthetized Dogs; cumulative i.v. dose 3.2 μg/kg): -16 ± 2%; blood pressure (Anesthetized Dogs; cumulative i.v. dose 10 μg/kg): 74 ± 6 mm/Hg; ratio of blood pressure change as compared to the normal blood pressure (Anesthetized Dogs; cumulative i.v. dose 10 μg/kg): -39 ± 2%; blood pressure (Anesthetized Dogs; cumulative i.v. dose 32 μg/kg): 64 ± 7 mm/Hg; ratio of blood pressure change as compared to the normal blood pressure (Anesthetized Dogs; cumulative i.v. dose 32 μg/kg): -47 ± 4%; blood pressure (Anesthetized Dogs; cumulative i.v. dose 100 μg/kg): 58 ± 6 mm/Hg; ratio of blood pressure change as compared to the normal blood pressure (Anesthetized Dogs; cumulative i.v. dose 100 μg/kg): -52 ± 3%; solubility [2]: 4.7 µg/mL (≈ 12.2 µM)

What does the source list for `COC(=O)C1=C(C#N)NC(C)=C(C(=O)OC(C)C)C1c1cccc([N+](=O)[O-])c1` (single isomer, unassigned; (+)) [(+)-5-isopropyl 3-methyl 2-cyano-6-methyl-4-(3-nitrophenyl)-1,4-dihydropyridine-3,5-dicarboxylate]?
hypotensive and vasodilating activities (in words) (Anesthetized Dogs; [5]): much stronger and more lasting hypotensive and vasodilating activities; solubility (in words) [2, 5]: higher solubility
